What was measured:
[1] = molecular target: NACHT, LRR and PYD domains-containing protein 3 (Mus musculus) (UniProt Q8R4B8); experiment: (§1) Inhibition of NLRP3 inflammasome activation in LPS-stimulated mouse J774A.1 cells assessed as inhibition of cell pyrolysis at 20 uM incubated for 1 hr followed by ATP addition and measured after 30 mins by Hoechst 33342/propidium iodide staining based high content screening method relative to control; details: J774.A1, time 1.5 hrs
[2] = molecular target: NACHT, LRR and PYD domains-containing protein 3 (Mus musculus) (UniProt Q8R4B8); experiment: as §1, with “10” for “20”; details: J774.A1, time 1.5 hrs
L02 = experiment: Cytotoxicity against human L-02 cells incubated for 24 hrs by MTT assay; type: cell-based; details: L02, 24 h
[3] = molecular target: NACHT, LRR and PYD domains-containing protein 3 (Mus musculus, UniProt Q8R4B8); experiment: Inhibition of NLRP3 inflammasome activation in LPS-stimulated mouse bone marrow-derived macrophages assessed as reduction in IL-1beta secretion preincubated for 30 mins followed by nigericin addition and measured after 30 mins by ELISA; type: tissue-based, Macrophage
NACHT, LRR and PYD domains-containing protein 3, sequence (Q8R4B8 whole entry, the tested form may be a part): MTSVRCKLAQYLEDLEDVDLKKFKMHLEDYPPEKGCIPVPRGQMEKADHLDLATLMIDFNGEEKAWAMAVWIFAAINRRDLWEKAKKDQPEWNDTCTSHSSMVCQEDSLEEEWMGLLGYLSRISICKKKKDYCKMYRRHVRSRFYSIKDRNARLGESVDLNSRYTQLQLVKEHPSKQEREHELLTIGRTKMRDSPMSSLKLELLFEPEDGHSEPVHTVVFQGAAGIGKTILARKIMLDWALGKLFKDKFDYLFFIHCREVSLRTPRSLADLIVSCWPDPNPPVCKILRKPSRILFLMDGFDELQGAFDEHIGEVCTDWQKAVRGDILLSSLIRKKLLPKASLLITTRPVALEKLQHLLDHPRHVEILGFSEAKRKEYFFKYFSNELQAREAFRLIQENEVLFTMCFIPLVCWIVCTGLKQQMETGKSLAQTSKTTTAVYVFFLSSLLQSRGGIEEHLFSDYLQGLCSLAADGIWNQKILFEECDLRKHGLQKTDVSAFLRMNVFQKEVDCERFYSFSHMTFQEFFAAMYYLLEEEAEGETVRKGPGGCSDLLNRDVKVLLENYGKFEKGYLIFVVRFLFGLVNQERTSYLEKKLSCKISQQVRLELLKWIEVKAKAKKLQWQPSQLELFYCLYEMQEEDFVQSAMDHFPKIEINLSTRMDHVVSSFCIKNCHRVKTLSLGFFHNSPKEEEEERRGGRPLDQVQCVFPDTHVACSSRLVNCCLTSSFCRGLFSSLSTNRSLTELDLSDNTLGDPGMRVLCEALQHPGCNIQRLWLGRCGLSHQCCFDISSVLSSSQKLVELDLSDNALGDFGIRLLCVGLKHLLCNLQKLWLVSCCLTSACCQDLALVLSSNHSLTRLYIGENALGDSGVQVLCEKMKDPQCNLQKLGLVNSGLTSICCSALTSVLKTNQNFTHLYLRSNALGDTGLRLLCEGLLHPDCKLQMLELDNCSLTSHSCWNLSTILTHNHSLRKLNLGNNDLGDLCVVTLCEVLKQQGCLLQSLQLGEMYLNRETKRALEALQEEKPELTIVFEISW

NACHT, LRR and PYD domains-containing protein 3 (Mus musculus), sequence (Q8R4B8 whole entry, the tested form may be a part): as above

SMILES	inhibition [1]	inhibition [2]	IC50 [3]	IC50 (L02)
COc1cc(/C=C/c2ccc(OCc3ccc(C(F)(F)F)cc3)cc2)c(/C=C/[N+](=O)[O-])c(OC)c1	23.7%	17.9%		> 100 µM
COc1cc(/C=C/c2ccc(NC(=O)C3CCCCC3)cc2)c(/C=C/[N+](=O)[O-])c(OC)c1		28.7%	> 10 µM	> 100 µM
C=CC(=O)Nc1ccc(/C=C/c2cc(OC)cc(OC)c2/C=C/[N+](=O)[O-])cc1		71.2%		> 100 µM
COc1cc(/C=C/c2ccc(NC(=O)OC(C)(C)C)cc2)c(/C=C/[N+](=O)[O-])c(OC)c1		24%		> 100 µM
C=CCCCOc1ccc(/C=C/c2cc(OC)cc(OC)c2-c2cnn[nH]2)cc1				> 100 µM
C/C=C/C(=O)Nc1ccc(/C=C/c2cc(OC)cc(OC)c2/C=C/[N+](=O)[O-])cc1		60.7%		> 100 µM
COCCOc1ccc(/C=C/c2cc(OC)cc(OC)c2-c2cnn[nH]2)cc1	26.9%	11.3%		94.5 µM
CCCC(=O)Nc1ccc(/C=C/c2cc(OC)cc(OC)c2/C=C/[N+](=O)[O-])cc1		48.9%		> 100 µM
COc1cc(/C=C/c2ccc(NC(=O)CC(C)(C)C)cc2)c(/C=C/[N+](=O)[O-])c(OC)c1		9.89%		> 100 µM
COc1cc(/C=C/c2ccc(OCC(=O)NCc3ccccc3)cc2)cc(OC)c1	15.4%	9.65%		> 100 µM
C=CCCCOc1ccc(/C=C/c2cc(OC)cc(OC)c2/C=C/[N+](=O)[O-])cc1	33.5%	26.8%		> 100 µM
COc1cc(/C=C/c2ccc(OCC(=O)NCc3ccccc3)cc2)c(-c2cnn[nH]2)c(OC)c1	31.6%	19.4%	> 10 µM	> 100 µM
COc1cc(/C=C/c2ccc(OCC(=O)NCC3CCOCC3)cc2)c(/C=C/[N+](=O)[O-])c(OC)c1	25.3%	15.3%		> 100 µM
COCCCOc1ccc(/C=C/c2cc(OC)cc(OC)c2)cc1	20.2%	17.1%		> 100 µM
C=C1C(=O)[C@]23[C@H](O)[C@H]1CC[C@H]2[C@@]12CO[C@]3(O)[C@@H](O)[C@@H]1C(C)(C)CC[C@@H]2O [ORIDONIN]	83.3%	69.5%	0.81 µM	38.2 µM
COc1cc(/C=C/c2ccc(OCc3ccc(C(F)(F)F)cc3)cc2)c(-c2cnn[nH]2)c(OC)c1	3.25%			> 100 µM
CCCCC(=O)Nc1ccc(/C=C/c2cc(OC)cc(OC)c2/C=C/[N+](=O)[O-])cc1		36%		> 100 µM
COCCOc1ccc(/C=C/c2cc(OC)cc(OC)c2)cc1	32.3%	25.7%		> 100 µM
CCCC(C)C(=O)Nc1ccc(/C=C/c2cc(OC)cc(OC)c2/C=C/[N+](=O)[O-])cc1 (stereo unspecified)		41%		> 100 µM
COc1cc(/C=C/c2ccc(NC(=O)CCl)cc2)c(/C=C/[N+](=O)[O-])c(OC)c1		90%		42.6 µM
COc1cc(/C=C/c2ccc(NC(=O)C(C)C)cc2)c(/C=C/[N+](=O)[O-])c(OC)c1		69%		> 100 µM
COc1cc(/C=C/c2ccc(OCC(=O)NC3CCCCC3)cc2)c(/C=C/[N+](=O)[O-])c(OC)c1	41.8%	25.6%		> 100 µM
C=CCCCOc1ccc(/C=C/c2cc(OC)cc(OC)c2)cc1	12.1%	11.1%		> 100 µM
COc1cc(/C=C/c2ccc(NC(=O)C3CCC3)cc2)c(/C=C/[N+](=O)[O-])c(OC)c1		55.6%	1.41 µM	> 100 µM
COc1cc(/C=C/c2ccc(OCC(=O)NC3CCN(C(=O)OC(C)(C)C)CC3)cc2)c(/C=C/[N+](=O)[O-])c(OC)c1	42.3%	33%		> 100 µM
COc1cc(/C=C/c2ccc(NC(=O)CCCl)cc2)c(/C=C/[N+](=O)[O-])c(OC)c1		70.5%	0.76 µM	> 100 µM
COc1cc(/C=C/c2ccc(NC(=O)C3CCCC3)cc2)c(/C=C/[N+](=O)[O-])c(OC)c1		45.7%		> 100 µM

Continued, in another order:

inhibition [1]	inhibition [2]	IC50 [3]	SMILES	IC50 (L02)
23.1%	11.8%		COc1ccc(CNC(=O)COc2ccc(/C=C/c3cc(OC)cc(OC)c3/C=C/[N+](=O)[O-])cc2)cc1	> 100 µM
40.1%	22.1%		COc1cc(/C=C/c2ccc(OCC(=O)Nc3ccc(Cl)cc3)cc2)c(/C=C/[N+](=O)[O-])c(OC)c1	> 100 µM
39.8%	20.1%		COc1cc(NC(=O)COc2ccc(/C=C/c3cc(OC)cc(OC)c3/C=C/[N+](=O)[O-])cc2)cc(OC)c1	> 100 µM
15.1%	12.9%		COc1ccc(NC(=O)COc2ccc(/C=C/c3cc(OC)cc(OC)c3/C=C/[N+](=O)[O-])cc2)cc1	> 100 µM
	60%		COCC(=O)Nc1ccc(/C=C/c2cc(OC)cc(OC)c2/C=C/[N+](=O)[O-])cc1	> 100 µM
40.2%	34.6%		COCCOc1ccc(/C=C/c2cc(OC)cc(OC)c2/C=C/[N+](=O)[O-])cc1	> 100 µM
57.9%	27.9%		COc1cc(/C=C/c2ccc(OCC(=O)NCc3ccccc3)cc2)c(/C=C/[N+](=O)[O-])c(OC)c1	> 100 µM
49.6%	40.7%		COc1cc(/C=C/c2ccc(OCC(=O)Nc3ccc(F)cc3)cc2)c(/C=C/[N+](=O)[O-])c(OC)c1	> 100 µM
31.9%	24.1%		COc1cc(/C=C/c2ccc(OCC(=O)NCc3ccc(C)cc3)cc2)c(/C=C/[N+](=O)[O-])c(OC)c1	> 100 µM
65.4%	45.3%	7.68 µM	COc1cc(/C=C/c2ccc(OCC(=O)NCc3ccncc3)cc2)c(/C=C/[N+](=O)[O-])c(OC)c1	63 µM
	61%		COc1cc(/C=C/c2ccc(NC(=O)COC(C)=O)cc2)c(/C=C/[N+](=O)[O-])c(OC)c1	58.7 µM
	56.2%		COc1cc(/C=C/c2ccc(NC(C)=O)cc2)c(/C=C/[N+](=O)[O-])c(OC)c1	> 100 µM
53.7%	43.2%		COCCCOc1ccc(/C=C/c2cc(OC)cc(OC)c2/C=C/[N+](=O)[O-])cc1	> 100 µM
26.2%	9.56%		COc1cc(/C=C/c2ccc(OCC(=O)Nc3ccc(Br)cc3)cc2)c(/C=C/[N+](=O)[O-])c(OC)c1	> 100 µM
	50.7%		CCC(=O)Nc1ccc(/C=C/c2cc(OC)cc(OC)c2/C=C/[N+](=O)[O-])cc1	> 100 µM
49.6%	30.7%		COc1cc(/C=C/c2ccc(OCC(=O)NCc3ccc(Cl)cc3)cc2)c(/C=C/[N+](=O)[O-])c(OC)c1	> 100 µM
59.9%	34.4%		COc1cc(/C=C/c2ccc(OCC(=O)NCc3ccc(C#N)cc3)cc2)c(/C=C/[N+](=O)[O-])c(OC)c1	> 100 µM
46.2%	26.2%		COc1cc(/C=C/c2ccc(OCC(=O)NCCc3ccccc3)cc2)c(/C=C/[N+](=O)[O-])c(OC)c1	> 100 µM
